# Test results reported in patent US8592382B2, “Formulations for the oral administration of therapeutic agents and related methods” (The University of British Columbia, priority 2007, dated 2013).
# Where two headings read alike, the source gives them in different places.
# Experiments:
# [1] = Solubility of the drug substance in water, solvents or simulated GI media; assay type: physicochemical
# [2] = cited from earlier work
# Leishmania = details: visceral leishmaniasis, IV therapy; cited from earlier work
# [3] = oral; cited from earlier work
compound,measurement,setting,value
"C[C@@H]1[C@H](O)[C@@H](C)/C=C/C=C/C=C/C=C/C=C/C=C/C=C/[C@H](O[C@@H]2O[C@H](C)[C@@H](O)[C@H](N)[C@@H]2O)C[C@@H]2O[C@](O)(C[C@@H](O)C[C@@H](O)[C@H](O)CC[C@@H](O)C[C@@H](O)CC(=O)O[C@H]1C)C[C@H](O)[C@H]2C(=O)O (relative stereo) [amphotericin B, [1R-(1R*,3S*,5R*,6R*,9R*,11R*,15S*,16R*,17R*,18S*,19E,21E,23E,25E,27E,29E,31E,33R*,35S*,36R*,37S,)]-33-[(3-amino-3,6-dideoxy-β-D-mannopyranosyl)oxy]1,3,5,6,9,11,17,37-octahydroxy-15,16,18-trimethyl-13-oxo-14,39-dioxabicyclo-[33.3.1]nonatriaconta-19,21,23,25,27,29,31-heptaene-36-carboxylic acid]",AmpB solubility in aqueous solution,[1]; aqueous solution (pH 7),negligible
same,Solubility of AmpB neat powder in simulated GI media,[1]; simulated gastric and intestinal fluids,not soluble
same,Solubility of crystalline substance in water,[2]; water,insoluble
same,Cure rate,Leishmania,97%
same,Bioavailability,[3],negligible
CC(=O)O[C@@]12CO[C@@H]1C[C@H](O)[C@@]1(C)C(=O)[C@H](O)C3=C(C)[C@@H](OC(=O)[C@H](O)[C@@H](NC(=O)OC(C)(C)C)c4ccccc4)C[C@@](O)([C@@H](OC(=O)c4ccccc4)[C@H]21)C3(C)C [docetaxel],Solubility in water,[2]; water,10 to 25 µg/mL
Clc1ccc(COC(Cn2ccnc2)c2ccc(Cl)cc2Cl)cc1 (centres unmarked) [econazole],Solubility in ethanol,[2]; ethanol,≤ 20000 µg/mL
same,Solubility in water,"[2]; water, 19-66° F.",< 1000 µg/mL
